These results are taken from patent US20150132382A1, “COMPOSITIONS AND METHODS OF TREATMENT COMPRISING FOSFOMYCIN DISODIUM” (Forest Laboratories Holdings Ltd., priority 2013, published 2015).

Data set [1] is described as follows: Microenvironmental pH of fosfomycin sodium, with and without organic acid. Type of data set: physicochemical. From the text: Fosfomycin may be granulated by using methods such as slugging, low or high shear granulation or fluid bed granulation. For example, for high shear granulation (e.g., Diosna Mixer Granulator), fosfomycin can be blended with a water soluble filler (e.g., lactose, sucrose, mannitol and sorbitol) and granulated with binder (sugars like sucrose and liquid glucose; natural binders like starch and pre-gelatinized starch; synthetic/semisynthetic polymers like HPMC, povidone, PEG, polyvinyl alcohol) solution. The granules are dried, milled and blended with an organic acid (e.g., citric acid, tartaric acid, succinic acid, malic acid, fumaric acid), anti-adherent (e.g., talc, fumed silica) and lubricant (sodium stearyl fumarate). The organic acid serves as a neutralizer counteracting microenvironmental high alkalinity resulting from fosfomycin sodium. Fosfomycin sodium microenvironmental pH of about 9 would be reduced to pH 6-8 due to the presence of an organic acid. The final blend is compressed into tablets (1.4-1.7 g/tablet) followed by film coating (e.g., Opadry) in a conventional coating pan. These formulations can provide≧80% fosfomycin dissolution in less than 30 minutes at pH 1.2.

The conditions of data set [2]: Borsa et al 1988; cited from earlier work.
For data set [3] the following is noted: compared with the other fosfomycin salt (Bergan 1990); cited from earlier work.
The conditions of data set [4]: cited from earlier work.

`C[C@@H]1O[C@@H]1P(=O)(O)O` [Fosfomycin disodium, fosfomycin disodium]: the “microenvironmental pH” value in data set [1] is recorded as “about 9”. The gastric irritation result in data set [2] is recorded as “known to cause gastric irritation”.
Take `C[C@@H]1O[C@@H]1P(=O)([O-])[O-].[Ca+2]` [fosfomycin calcium]: the bioavailability entry in data set [3] is listed as “lower bioavailability”. For the same molecule, the solubility in water entry in data set [4] is recorded as “slightly soluble in water”.
